This is an account of results in patent US20060069132A1, “Azolecarboxamide herbicides” (priority 2004, published 2006).

One test has as its system johnsongrass. Briefly: Test C pre-/postemergence herbicide test. The class given is in vivo, Sorghum halepense. A digest of the protocol:
(§1)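 Greenhouse-grown plants were evaluated visually 12 to 14 days after treatment, with 100 meaning complete control and 0 no effect. Application was preemergence, or postemergence at 2 to 18 cm.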

The subject of test [1] is lambsquarters. Briefly: Test B pre-/postemergence herbicide test. It is filed as in vivo, Chenopodium album. The note with it: for Lambsquarters plant response rating (0 to 100 scale) / Plant response rating, Lambsquarters: 0 = no effect, 100 = complete control; for Lambsquarters plant response rating (0 to 100 scale) / Plant response rating, Lambsquarters / Plant response rating (0 to 100 scale), Lambsquarters: preemergence; for Lambsquarters plant response rating: postemergence; for Plant response rating (0 to 100 scale), Lambsquarters: 0 is no effect. A digest of the protocol: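 Plants compared with untreated controls 13–15 days post-treatment and given a visual 0–100 injury score. Applications: preemergence to seeds; postemergence at 1- to 4-leaf (2–18 cm); paddy species flooded, 2-leaf stage. Vehicle non-phytotoxic, surfactant included.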

For test [2], the system named is lambsquarters. Briefly: Test C pre-/postemergence herbicide test. It is filed as in vivo, Chenopodium album. A digest of the protocol: as §1
Test [3] deals with common (oilseed) sunflower. Put plainly: Test C pre-/postemergence herbicide test. As to conditions: preemergence. The class given is in vivo, Helianthus annuus. In short, it runs like this: as §1
The subject of test [4] is smallflower umbrella sedge. Put plainly: Test C flooded paddy test. As to conditions: for Plant response rating, Sedge, Umbrella: 500 g ai/ha, visual rating after 12 to 14 days. The class given is in vivo, Cyperus difformis.
Setting [5] is: 62 g ai/ha, preemergence, scale 0 to 100.
[6] abbreviates: 125 g ai/ha, scale 0 (no effect) to 100 (complete control), visual, 12 to 14 days, preemergence.
Where [7] appears, read: 250 g ai/ha, scale 0-100, preemergence.
Setting [8] is: 500 g ai/ha, scale 0 to 100 (0 no effect, 100 complete control), visual, 12 to 14 days, preemergence.
[9] abbreviates: 125 g ai/ha, visual rating, scale 0 (no effect) to 100 (complete control).
[10] abbreviates: 500 g ai/ha, scale 0 to 100, 0 is no effect, 100 is complete control.
[11] abbreviates: 125 g ai/ha, scale 0 to 100 (0 no effect, 100 complete control).
The mark [12] stands for this setting: 250 g ai/ha, scale of 0 to 100, 0 is no effect, 100 is complete control.
The mark [13] stands for this setting: scale 0 to 100 (0 no effect, 100 complete control).
[14] abbreviates: 500 g ai/ha, scale 0 to 100 (0 no effect, 100 complete control), visual, 12 to 14 days.
The mark [15] stands for this setting: Postemergence, 500 g ai/ha, scale 0 to 100.
[16] abbreviates: Postemergence, 250 g ai/ha, scale 0 to 100, 0 no effect, 100 complete control.
Where [17] appears, read: postemergence, 125 g ai/ha, scale 0 to 100.
Where [18] appears, read: postemergence, 62 g ai/ha, scale 0 to 100.
The mark [19] stands for this setting: 125 g ai/ha, 100 is complete control.

Consider `CCc1nn(C(C)(C)C)cc1C(=O)Nc1cc(C(=O)N(C)C)ccn1` [Compound 293], for which the “Plant response rating, Johnsongrass” value with johnsongrass (setting [5]) is reported as 65; in the test on johnsongrass (setting [6]), 95; in the test with johnsongrass (setting [7]), 100; in the test with johnsongrass (setting [8]) it was 100. Also, the “Lambsquarters plant response rating (0 to 100 scale)” value in the test on lambsquarters [1] (125 g ai/ha) was 80. Moreover, the results for the “Lambsquarters plant response rating” value in the test on lambsquarters [1] (setting [9]) and with lambsquarters [1] (setting [10]) were 50 and 70, respectively. Besides, the “Plant response rating, Lambsquarters” value with lambsquarters [1] (500 g ai/ha, visual rating) is recorded as 100; in the test on lambsquarters [2] (setting [5]) it was 100; in the test with lambsquarters [2] (setting [6]) it was 100; in the test with lambsquarters [2] (setting [7]), 100; in the test with lambsquarters [2] (setting [8]), 100. In addition, the “Plant response rating, Sunflower” value in test [3] (62 g ai/ha, scale 0 to 100) was determined as 10; in test [3] (250 g ai/ha, scale 0-100), 65. For the same molecule, the “Sedge, Umbrella plant response rating” value in test [4] (62 g ai/ha, scale 0 to 100) is 20; in test [4] (setting [11]) it was 75; in test [4] (setting [12]) it was 80. The “Plant response rating, Sedge, Umbrella” value in test [4] (setting [13]) is on record as 90.

For `CCn1nc(C(C)(C)C)cc1C(=O)Nc1cc(C(=S)N(C)C)ccc1F` [Compound 294], the “Plant response rating, Johnsongrass” value in the test with johnsongrass (setting [5]) worked out at 80; in the test with johnsongrass (setting [6]) it was 100; in the test with johnsongrass (setting [7]) it was 100; in the test with johnsongrass (setting [8]), 100. In addition, the “Lambsquarters plant response rating (0 to 100 scale)” value in the test on lambsquarters [1] (125 g ai/ha) amounted to 100. The “Lambsquarters plant response rating” value in the test on lambsquarters [1] (setting [9]) is 70; with lambsquarters [1] (setting [10]), 80. In addition, the “Plant response rating, Lambsquarters” value is 100 in the test with lambsquarters [1] (500 g ai/ha, visual rating); 100 in the test on lambsquarters [2] (setting [5]); 100 in the test on lambsquarters [2] (setting [6]); 100 in the test on lambsquarters [2] (setting [7]); 100 in the test with lambsquarters [2] (setting [8]). The “Plant response rating, Sunflower” value in test [3] (62 g ai/ha, scale 0 to 100) is reported as 30; in test [3] (250 g ai/ha, scale 0-100) it was 100; in test [3] (setting [14]) it was 100. In addition, the “Sedge, Umbrella plant response rating” value was determined as 80 in test [4] (62 g ai/ha, scale 0 to 100); 85 in test [4] (setting [11]); 90 in test [4] (setting [12]). Moreover, the “Plant response rating, Sedge, Umbrella” value in test [4] (setting [13]) was determined as 90.

As to `CCn1nc(C2(C)CC2)cc1C(=O)Nc1cc(C(=O)N(C)C)ccc1F` [Compound 299], the “Plant response rating, Johnsongrass” value with johnsongrass (setting [5]) worked out at 85; in the test with johnsongrass (setting [6]), 100; in the test with johnsongrass (setting [7]), 100; in the test on johnsongrass (setting [8]) it was 100. Also, the “Lambsquarters plant response rating (0 to 100 scale)” value in the test with lambsquarters [1] (125 g ai/ha) is given as 100. For the same molecule, the “Lambsquarters plant response rating” value in the test on lambsquarters [1] (setting [9]) is listed as 40; in the test on lambsquarters [1] (setting [10]) it was 100. Moreover, the “Plant response rating, Lambsquarters” value with lambsquarters [1] (500 g ai/ha, visual rating) came out at 100; in the test on lambsquarters [2] (setting [5]), 100; with lambsquarters [2] (setting [6]) it was 100; with lambsquarters [2] (setting [7]), 100; in the test with lambsquarters [2] (setting [8]) it was 100. For the same molecule, the “Plant response rating, Sunflower” value in test [3] (62 g ai/ha, scale 0 to 100) was 10; in test [3] (250 g ai/ha, scale 0-100) it was 100; in test [3] (setting [14]) it was 100. In addition, the “Sedge, Umbrella plant response rating” value came to 85 in test [4] (62 g ai/ha, scale 0 to 100); 95 in test [4] (setting [11]); 95 in test [4] (setting [12]). Further, in test [4] (setting [13]), the “Plant response rating, Sedge, Umbrella” value is recorded as 95.

For `CCn1nc(C(C)(C)C)cc1C(=S)Nc1cc(C(=S)N(C)C)ccc1F` [Compound 305], the “Plant response rating, Johnsongrass” value came to 65 with johnsongrass (setting [5]), 90 in the test on johnsongrass (setting [6]), 95 in the test on johnsongrass (setting [7]) and 95 in the test on johnsongrass (setting [8]). Further, in the test on lambsquarters [1] (125 g ai/ha), the “Lambsquarters plant response rating (0 to 100 scale)” value was found to be 100. For the same molecule, the “Lambsquarters plant response rating” value in the test on lambsquarters [1] (setting [9]) came to 50; in the test on lambsquarters [1] (setting [10]) it was 80. The “Plant response rating, Lambsquarters” value in the test with lambsquarters [1] (500 g ai/ha, visual rating) amounted to 100; with lambsquarters [2] (setting [5]), 100; in the test with lambsquarters [2] (setting [6]), 100; in the test on lambsquarters [2] (setting [7]), 100; with lambsquarters [2] (setting [8]), 100. Besides, the “Plant response rating, Sunflower” value was 0 in test [3] (62 g ai/ha, scale 0 to 100); 0 in test [3] (250 g ai/ha, scale 0-100); 50 in test [3] (setting [14]). Further, the “Sedge, Umbrella plant response rating” value was found to be 85 in test [4] (62 g ai/ha, scale 0 to 100); 90 in test [4] (setting [11]); 90 in test [4] (setting [12]). The “Plant response rating, Sedge, Umbrella” value in test [4] (setting [13]) came to 90.

As for `CCNC(=O)c1cccc(NC(=O)c2cc(C3(C)CC3)nn2CC)c1` [Compound 306], the “Plant response rating, Johnsongrass” value with johnsongrass (setting [5]) came to 40; in the test on johnsongrass (setting [6]) it was 60; with johnsongrass (setting [7]), 80. Moreover, in the test on lambsquarters [1] (125 g ai/ha), the “Lambsquarters plant response rating (0 to 100 scale)” value turned out to be 100. The “Lambsquarters plant response rating” value is 70 in the test on lambsquarters [1] (setting [9]) and 80 in the test on lambsquarters [1] (setting [10]). Also, the “Plant response rating, Lambsquarters” value in the test with lambsquarters [1] (500 g ai/ha, visual rating) worked out at 100; with lambsquarters [2] (setting [5]), 100; with lambsquarters [2] (setting [6]), 100; with lambsquarters [2] (setting [7]), 100; in the test on lambsquarters [2] (setting [8]), 100. Further, the “Plant response rating, Sunflower” value in test [3] (62 g ai/ha, scale 0 to 100) is recorded as 0; in test [3] (250 g ai/ha, scale 0-100), 0; in test [3] (setting [14]) it was 0. Moreover, the “Sedge, Umbrella plant response rating” value in test [4] (62 g ai/ha, scale 0 to 100) was found to be 85; in test [4] (setting [11]) it was 90; in test [4] (setting [12]) it was 90. Further, in test [4] (setting [13]), the “Plant response rating, Sedge, Umbrella” value was determined as 90.

As for `CCn1nc(C(C)(C)C)cc1C(=O)Nc1cccc(OC(F)F)c1` [Compound 332], the “Plant response rating, Johnsongrass” value is reported as 0 in the test with johnsongrass (setting [5]); 10 in the test with johnsongrass (setting [6]); 50 with johnsongrass (setting [7]); 80 with johnsongrass (setting [8]); 5 with johnsongrass (setting [16]); 5 in the test on johnsongrass (setting [17]). In addition, the “Plant response rating, Johnsongrass” value with johnsongrass (setting [18]) is on record as 0. For the same molecule, the “Johnsongrass plant response rating” value with johnsongrass (setting [15]) amounted to 5. Also, the “Plant response rating (0 to 100 scale), Lambsquarters” value with lambsquarters [1] (setting [19]) is 90. In addition, the “Lambsquarters plant response rating” value with lambsquarters [1] (setting [9]) was 80; with lambsquarters [1] (setting [10]), 100; in the test on lambsquarters [2] (setting [15]), 100. Also, the “Plant response rating, Lambsquarters” value in the test with lambsquarters [1] (500 g ai/ha, visual rating) came out at 100; in the test with lambsquarters [2] (setting [5]), 100; with lambsquarters [2] (setting [6]), 100; with lambsquarters [2] (setting [7]) it was 100; in the test with lambsquarters [2] (setting [8]), 100; in the test on lambsquarters [2] (setting [16]), 100. The “Plant response rating, Lambsquarters” value with lambsquarters [2] (setting [17]) amounted to 65; with lambsquarters [2] (setting [18]), 50. The “Plant response rating, Sunflower” value is recorded as 0 in test [3] (62 g ai/ha, scale 0 to 100); 0 in test [3] (250 g ai/ha, scale 0-100); 0 in test [3] (setting [14]). The “Sedge, Umbrella plant response rating” value is listed as 65 in test [4] (62 g ai/ha, scale 0 to 100); 80 in test [4] (setting [11]); 85 in test [4] (setting [12]). In addition, the “Plant response rating, Sedge, Umbrella” value in test [4] (setting [13]) was determined as 85.

For the molecule `CCn1nc(C(C)(C)C)cc1C(=O)Nc1cc(C(=S)N(C)C)ccn1` [Compound 334], the “Plant response rating, Johnsongrass” value is 90 in the test with johnsongrass (setting [5]), 100 with johnsongrass (setting [6]) and 100 in the test with johnsongrass (setting [7]). The “Plant response rating (0 to 100 scale), Lambsquarters” value in the test with lambsquarters [1] (setting [19]) is reported as 100. The results for the “Lambsquarters plant response rating” value with lambsquarters [1] (setting [9]) and in the test on lambsquarters [1] (setting [10]) were 70 and 90, respectively. For the same molecule, the “Plant response rating, Lambsquarters” value is 100 in the test with lambsquarters [1] (500 g ai/ha, visual rating); 100 in the test on lambsquarters [2] (setting [5]); 100 in the test on lambsquarters [2] (setting [6]); 100 in the test on lambsquarters [2] (setting [7]). For the same molecule, the “Plant response rating, Sunflower” value is reported as 5 in test [3] (62 g ai/ha, scale 0 to 100) and 55 in test [3] (250 g ai/ha, scale 0-100). In addition, the “Sedge, Umbrella plant response rating” value in test [4] (62 g ai/ha, scale 0 to 100) is reported as 80; in test [4] (setting [11]), 90; in test [4] (setting [12]), 90. Further, the “Plant response rating, Sedge, Umbrella” value in test [4] (setting [13]) is 95.
